In US20240156861A1, “Cisplatin particles and uses thereof” (CRITITECH, INC., priority 2022, published 2024):
Values joined by “and” are separate entries in the source; they are usually repeats but may differ in a detail not shown here. Equal values may be shown once.

What was measured:
Type in all cases: in vivo, female athymic nude mice
[1] = tested on: H69 human lung carcinoma xenograft; assay: Tumor-site tissue platinum concentrations and PK parameters by ICP-MS in H69 xenograft mice;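 on Individual Tumor-Site Tissue Platinum Concentrations: unit μg/g tissue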;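 on Mean Tumor-Site Tissue Platinum Concentrations: unit μg/g tissue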
Protocol: (§1) A total of 130 female athymic nude mice bearing the H69 human lung carcinoma xenograft were assigned to 10 treatment groups. Group 1 (N=5 females) served as the no treatment control. All intratumoral (IT) injections were delivered as single 25 μL injections. […] The maximum concentration of cisplatin solution and LSAM-Cisplatin suspension is 1 mg/mL and 10 mg/mL, respectively. The IT maximum feasible dose (MFD) for cisplatin solution is 25 μg and 250 μg for LSAM-Cisplatin suspension. Group 2 (N=10 females) was administered 47.5% ethanol/47.5% glycerin/5% water IT on Study Days 1 and 16 and served as control. Group 3 (N=20 females) received 133 μg cisplatin intraperitoneal (IP), considered the standard of care (SOC), once weekly for 3 cycles (Days 1, 8, and 15. Group 4 (N=5) was administered a single 125 μg large surface area microparticle (LSAM)-Cisplatin IT injection on Day 1. Group 5 (N=5 females) received a single 187.5 μg LSAM-Cisplatin IT injection on Day 1. Group 6 (N=5 females) was administered a single 250 μg LSAM-Cisplatin IT injection on Day 1. Group 7 (N=20 females) received single 25 μg cisplatin IT injections on Days 1 and 16. Group 8 (N=20 females) received single 125 μg LSAM-Cisplatin IT injections on Days 1 and 16. Group 9 (N=20 females) received single 187.5 μg LSAM-Cisplatin IT injections on Days 1 and 16. Group 10 (N=20 females) received single 250 μg LSAM-Cisplatin IT injections on Days 1 and 16. One hour postdose on Day 1, blood and tumor tissue were collected for determination of platinum concentrations from 3 Group 2 females and 5 females from Groups 3 and 7-10. On Days 8, 16 (predose) and 28, blood and tumor tissue were collected for determination of platinum concentrations from 5 females/Study Day from Groups 3 and 7-10. Total platinum concentrations in blood and tumor tissues were determined by inductively coupled plasma mass spectrometry (ICP-MS).
(§2) The LSAM-Cisplatin pharmacology study was conducted to: • Quantitate platinum content in whole blood and tumors to animals administered cisplatin IP (standard of care, SOC), the MFD of IT cisplatin, and IT LSAM- Cisplatin at the maximum feasible dose (MFD) and two lower doses • Evaluate tumor response • Evaluate increased doses of IT LSAM-Cisplatin up to 2X systemic maximum tolerated dose (MTD) • Evaluate one vs two injections • Evaluate recurrences if tumors regressed
(§3) Blood and tumor-site tissue were collected from each treatment group according to Table 4.
(§4) All blood and tumor-site tissue platinum concentrations that were reported as BLQ were considered as zero for statistical purposes. Mean and standard deviation are the only statistics reported for blood and tumor-site tissue platinum concentrations and platinum blood to tumor tissue ratios. Composite maximum observed concentration (Cmax), time of Cmax (Tmax), and area under the concentration-time curve (AUC) values for platinum in blood and tumor tissue following single and repeated administration of cisplatin or LSAM-Cisplatin are reported.

[2] = Blood platinum concentrations and PK parameters by ICP-MS in H69 xenograft mice
Protocol: as §1, §2, §3, §4

[3] = Platinum blood to tumor-site tissue concentration ratios in H69 xenograft mice; settings: for Individual platinum blood to tumor-site tissue concentration ratio: individual animals
Protocol: as §1, §4
Platinum Cmax, Tmax, and AUC values for single-dose blood and tumor-site tissue data are provided in Table 8 and Table 9, respectively. Platinum Cmax, Tmax, and AUC values for multi-dose blood and tumor-site tissue data are provided in Table 10 and Table 11, respectively. Mean single-dose blood platinum concentrations are plotted in FIG. 20. Mean single-dose tumor-site tissue platinum concentrations are plotted in FIG. 21. Mean multiple-dose blood platinum concentration data are plotted in FIG. 22. Mean multiple-dose tumor-site tissue platinum concentration data are plotted in FIG. 23.

[4] = Group 3: 6 mg/kg IP on Days 1, 8, 15, Day 1 (1 hour postdose)
[5] = Group 3: 6 mg/kg IP on Days 1, 8, 15, Day 1 (1 hour postdose), 6 mg/kg
[6] = Group 3: 6 mg/kg IP on Days 1, 8, 15, Day 8 (pre-dose)
[7] = Group 3: 6 mg/kg IP on Days 1, 8, 15, Day 16
[8] = Group 3: 6 mg/kg IP on Days 1, 8, 15, Day 16, 6 mg/kg
[9] = Group 3: 6 mg/kg IP on Days 1, 8, 15, Day 28
[10] = Group 3: 6 mg/kg IP on Days 1, 8, 15, Day 28, 6 mg/kg
[11] = multiple doses, 6 mg/kg IP on Days 1, 8, and 15
[12] = multiple doses, ~1.1 mg/kg IT on Days 1 and 16
[13] = single dose Day 1, ~1.1 mg/kg IT

N.N.[Cl][Pt][Cl] [Cisplatin]
Mean Tumor-Site Tissue Platinum Concentrations [1, 4]: 0.734 µg/g
Individual Tumor-Site Tissue Platinum Concentrations [1, 5]: 0.901 μg/g and BLQ (below the limit of quantitation (<0.650 μg/g) and treated as zero for statistical purposes) and 1.15 μg/g and 0.777 μg/g and 0.843 μg/g
Individual Tumor-Site Tissue Platinum Concentrations [1, 6]: BLQ (below the limit of quantitation (<0.650 μg/g) and treated as zero for statistical purposes)
Mean Tumor-Site Tissue Platinum Concentrations ([1]; Group 3: 6 mg/kg IP on Days 1, 8, 15, Day 8 (pre-dose), BLQ treated as zero): 0.00 µg/g
Mean Tumor-Site Tissue Platinum Concentrations [1, 7]: 1.39 µg/g
Individual Tumor-Site Tissue Platinum Concentrations [1, 8]: 0.753 µg/g and 1.17 µg/g and 1.27 µg/g and 2.62 µg/g and 1.12 µg/g
Mean Tumor-Site Tissue Platinum Concentrations [1, 9]: 0.459 µg/g
Individual Tumor-Site Tissue Platinum Concentrations [1, 10]: BLQ (below the limit of quantitation (<0.650 μg/g) and treated as zero for statistical purposes) (3×) and 0.933 μg/g and 1.36 μg/g
Mean Tumor-Site Tissue Platinum Concentrations ([1]; Group 7: 1.1 mg/kg IT on Days 1 and 16, Day 1 (1 hour postdose)): 11.3 µg/g
Individual Tumor-Site Tissue Platinum Concentrations ([1]; Group 7: 1.1 mg/kg IT on Days 1 and 16, Day 1 (1 hour postdose), 1.1 mg/kg): 14.4 µg/g and 13.2 µg/g and 9.66 µg/g and 8.68 µg/g and 10.4 µg/g
Mean Tumor-Site Tissue Platinum Concentrations ([1]; Group 7: 1.1 mg/kg IT on Days 1 and 16, Day 8): 3.23 µg/g
Individual Tumor-Site Tissue Platinum Concentrations ([1]; Group 7: 1.1 mg/kg IT on Days 1 and 16, Day 8, 1.1 mg/kg): 3.06 µg/g and 4.74 µg/g and 4.29 µg/g and 3.02 µg/g and 1.06 µg/g
Mean Tumor-Site Tissue Platinum Concentrations ([1]; Group 7: 1.1 mg/kg IT on Days 1 and 16, Day 16 (predose)): 2.97 µg/g
Individual Tumor-Site Tissue Platinum Concentrations ([1]; Group 7: 1.1 mg/kg IT on Days 1 and 16, Day 16 (predose), 1.1 mg/kg): 1.90 μg/g and 2.42 μg/g and 7.79 μg/g and 2.76 μg/g and BLQ (below the limit of quantitation (<0.650 μg/g) and treated as zero for statistical purposes)
Mean Tumor-Site Tissue Platinum Concentrations ([1]; Group 7: 1.1 mg/kg IT on Days 1 and 16, Day 28): 9.11 µg/g
Individual Tumor-Site Tissue Platinum Concentrations ([1]; Group 7: 1.1 mg/kg IT on Days 1 and 16, Day 28, 1.1 mg/kg): 20.2 µg/g and 8.89 µg/g and 6.35 µg/g and 7.97 µg/g and 2.16 µg/g
Tumor-Site Tissue Platinum AUC0-t [1, 11]: 470 µg·h/g
Tumor-Site Tissue Platinum Tmax [1, 11]: 384 h
Tumor-Site Tissue Platinum AUC0-t [1, 12]: 3,728 μg · hr/g
Tumor-Site Tissue Platinum Tmax [1, 12]: 1 h
Tumor-Site Tissue Platinum AUC0-192 ([1]; single dose Day 1, 6 mg/kg IP): 70.5 µg·h/g
Tumor-Site Tissue Platinum Tmax ([1]; single dose Day 1, 6 mg/kg IP): 1 h
Tumor-Site Tissue Platinum AUC0-192 [1, 13]: 1,393 μg · hr/g
Tumor-Site Tissue Platinum AUC0-384 [1, 13]: 1,988 μg · hr/g
Tumor-Site Tissue Platinum Tmax [1, 13]: 1 h
mean Day 28 tumor-site tissue platinum concentrations, IT versus IP ([1]; ~1.1 mg/kg IT Days 1 and 16 versus 6 mg/kg IP Days 1, 8, 15): greater than following IP administration
Day 28 blood platinum concentrations, IP versus IT ([2]; 6 mg/kg IP (SOC) versus ~1.1 mg/kg IT Days 1 and 16): higher
Mean Blood Platinum Concentrations [2, 4]: 793 ng/mL
Individual Blood Platinum Concentrations [2, 5]: 977 ng/mL and 221 ng/mL and 891 ng/mL and 1040 ng/mL and 838 ng/mL
Mean Blood Platinum Concentrations [2, 6]: 368 ng/mL
Individual Blood Platinum Concentrations ([2]; Group 3: 6 mg/kg IP on Days 1, 8, 15, Day 8 (pre-dose), 6 mg/kg): 441 ng/mL and 304 ng/mL and 428 ng/mL and 241 ng/mL and 426 ng/mL
Mean Blood Platinum Concentrations [2, 7]: 1180 ng/mL
Individual Blood Platinum Concentrations [2, 8]: 884 ng/mL and 1310 ng/mL and 1270 ng/mL and 1110 ng/mL and 1330 ng/mL
Mean Blood Platinum Concentrations [2, 9]: 396 ng/mL
Individual Blood Platinum Concentrations [2, 10]: 493 ng/mL and 472 ng/mL and 363 ng/mL and 188 ng/mL and 465 ng/mL
Mean Blood Platinum Concentrations ([2]; Group 7: ~1.1 mg/kg IT on Days 1 and 16, Day 1 (1 hour postdose)): 189 ng/mL
Individual Blood Platinum Concentrations ([2]; Group 7: ~1.1 mg/kg IT on Days 1 and 16, Day 1 (1 hour postdose), 1.1 mg/kg): 160 ng/mL and 242 ng/mL and 181 ng/mL and 193 ng/mL and 171 ng/mL
Mean Blood Platinum Concentrations ([2]; Group 7: ~1.1 mg/kg IT on Days 1 and 16, Day 8): 57.6 ng/mL
Individual Blood Platinum Concentrations ([2]; Group 7: ~1.1 mg/kg IT on Days 1 and 16, Day 8, 1.1 mg/kg): 69.9 ng/mL and BLQ (below the limit of quantitation (<50 ng/mL) and treated as zero for statistical purposes) and 86.7 ng/mL and 79 ng/mL and 52.6 ng/mL
Mean Blood Platinum Concentrations ([2]; Group 7: ~1.1 mg/kg IT on Days 1 and 16, Day 16 (predose)): 11.4 ng/mL
Individual Blood Platinum Concentrations ([2]; Group 7: ~1.1 mg/kg IT on Days 1 and 16, Day 16 (predose), 1.1 mg/kg): BLQ (below the limit of quantitation (<50 ng/mL) and treated as zero for statistical purposes) (4×) and 56.8 ng/mL
Mean Blood Platinum Concentrations ([2]; Group 7: ~1.1 mg/kg IT on Days 1 and 16, Day 28): 61.1 ng/mL
Individual Blood Platinum Concentrations ([2]; Group 7: ~1.1 mg/kg IT on Days 1 and 16, Day 28, 1.1 mg/kg): 68.1 ng/mL and 68.3 ng/mL and 57.8 ng/mL and 57.4 ng/mL and 53.8 ng/mL
Blood Platinum AUC0-t [2, 11]: 486,824 ng · hr/mL
Blood Platinum Cmax [2, 11]: 1180 ng/mL
Blood Platinum Tmax [2, 11]: 384 h
Blood Platinum AUC0-t [2, 12]: 40,709 ng · hr/mL
Blood Platinum Cmax [2, 12]: 189 ng/mL
Blood Platinum Tmax [2, 12]: 1 h
Blood Platinum AUC0-192 ([2]; single dose Day 1, 6 mg/kg IP): 111,272 ng · hr/mL
Blood Platinum Cmax ([2]; single dose Day 1, 6 mg/kg IP): 793 ng/mL
Blood Platinum Tmax ([2]; single dose Day 1, 6 mg/kg IP): 1 h
Blood Platinum AUC0-192 [2, 13]: 23,645 ng · hr/mL
Blood Platinum AUC0-384 [2, 13]: 30,269 ng · hr/mL
Blood Platinum Cmax [2, 13]: 189 ng/mL
Blood Platinum Tmax [2, 13]: 1 h
Individual platinum blood to tumor-site tissue concentration ratio ([3]; Group 3, 6 mg/kg cisplatin IP on Days 1, 8, and 15, sampling Day 1): 1.084 and 0.775 and 0.134 and 0.994
Mean platinum blood to tumor-site tissue concentration ratio ([3]; Group 3, 6 mg/kg cisplatin IP on Days 1, 8, and 15, sampling Day 1, N=4): 0.747
Individual platinum blood to tumor-site tissue concentration ratio ([3]; Group 3, 6 mg/kg cisplatin IP on Days 1, 8, and 15, sampling Day 16): 1.174 and 1.120 and 1.000 and 0.424 and 1.188
Mean platinum blood to tumor-site tissue concentration ratio ([3]; Group 3, 6 mg/kg cisplatin IP on Days 1, 8, and 15, sampling Day 16, N=5): 0.981
Individual platinum blood to tumor-site tissue concentration ratio ([3]; Group 3, 6 mg/kg cisplatin IP on Days 1, 8, and 15, sampling Day 28): 0.506 and 0.267
Mean platinum blood to tumor-site tissue concentration ratio ([3]; Group 3, 6 mg/kg cisplatin IP on Days 1, 8, and 15, sampling Day 28, N=2): 0.386
Individual platinum blood to tumor-site tissue concentration ratio ([3]; Group 7, ~1.1 mg/kg cisplatin IT on Days 1 and 16, sampling Day 1, 1.1 mg/kg): 0.011 and 0.018 and 0.019 and 0.022 and 0.016
Mean platinum blood to tumor-site tissue concentration ratio ([3]; Group 7, ~1.1 mg/kg cisplatin IT on Days 1 and 16, sampling Day 1, N=5): 0.017
Individual platinum blood to tumor-site tissue concentration ratio ([3]; Group 7, ~1.1 mg/kg cisplatin IT on Days 1 and 16, sampling Day 8, 1.1 mg/kg): 0.023 and 0.000 and 0.020 and 0.026 and 0.053
Mean platinum blood to tumor-site tissue concentration ratio ([3]; Group 7, ~1.1 mg/kg cisplatin IT on Days 1 and 16, sampling Day 8, N=5): 0.024
Individual platinum blood to tumor-site tissue concentration ratio ([3]; Group 7, ~1.1 mg/kg cisplatin IT on Days 1 and 16, sampling Day 16, 1.1 mg/kg): 0.000 (3×) and 0.023
Mean platinum blood to tumor-site tissue concentration ratio ([3]; Group 7, ~1.1 mg/kg cisplatin IT on Days 1 and 16, sampling Day 16, N=4): 0.006
Individual platinum blood to tumor-site tissue concentration ratio ([3]; Group 7, ~1.1 mg/kg cisplatin IT on Days 1 and 16, sampling Day 28, 1.1 mg/kg): 0.003 and 0.008 and 0.009 and 0.007 and 0.025
Mean platinum blood to tumor-site tissue concentration ratio ([3]; Group 7, ~1.1 mg/kg cisplatin IT on Days 1 and 16, sampling Day 28, N=5): 0.010
systemic exposure to platinum based on mean blood to tumor-site tissue ratios ([3]; repeated IT administration of 1.1 mg/kg): negligible
